# Reference: patent US12109264B2, “Motile sperm domain containing protein 2 and inflammation” (ImmuneWalk Therapeutics, Inc., priority 2015, dated 2024)
# “Also recorded” adds a separate entry of the source.
# Tests used:
# [1] = target: T1, HA-tagged human MOSPD2 on HEK293 cells (Homo sapiens, UniProt Q8NHP6); experiment: Cell-surface binding by flow cytometry on transfected HEK293 cells; conditions: for staining of / binding to cells that express MOSPD2 (HA positive): labelled compound (OB201/OB221), streptavidin-APC, HEK293 transfected with HA-tagged MOSPD2
# T1 construct: Full length human MOSPD2 cDNA was inserted, using EcoRI and XbaI restriction sites; HA (YPYDVPDYA); expressed in transfected cells; host or cells: HEK293
# T1 sequence (Q8NHP6 1-518): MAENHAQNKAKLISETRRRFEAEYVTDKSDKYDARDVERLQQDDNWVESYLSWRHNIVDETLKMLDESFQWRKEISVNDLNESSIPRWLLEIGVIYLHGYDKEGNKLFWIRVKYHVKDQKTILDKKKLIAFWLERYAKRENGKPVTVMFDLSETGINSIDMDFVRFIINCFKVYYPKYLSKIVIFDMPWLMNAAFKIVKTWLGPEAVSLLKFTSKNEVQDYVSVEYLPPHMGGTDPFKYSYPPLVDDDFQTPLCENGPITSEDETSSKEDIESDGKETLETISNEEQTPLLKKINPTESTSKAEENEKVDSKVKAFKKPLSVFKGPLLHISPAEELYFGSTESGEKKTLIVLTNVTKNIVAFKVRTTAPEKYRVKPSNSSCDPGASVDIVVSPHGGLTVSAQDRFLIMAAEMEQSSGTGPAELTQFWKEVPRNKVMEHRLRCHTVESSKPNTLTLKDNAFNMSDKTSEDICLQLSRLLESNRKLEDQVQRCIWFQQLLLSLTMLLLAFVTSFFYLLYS
# Method: HEK293 cells were transfected for 48 hours with empty plasmid or plasmid encoding hemagglutinin (HA)-tagged human MOSPD2 using jetPRIME transfection reagent (Polyplus transfection, France). Transfection efficiency was determined by flow cytometry using anti-HA-PE (miltenyi Biotec, Germany) antibody.
# (§1) VB-201 and VB-221 were labeled with biotin as follows. VB-201, VB-221 and ovalbumin (OVA, Sigma, Israel) were dissolved in 0.1M MES buffer (Thermo Scientific, Rockford, IL) and conjugated using EDC [1-ethyl-3-(dimethylaminopropyl) carbodiimide HCL] (Thermo Scientific) at a molar ratio of 100 (VB-201/VB-221):1 (OVA):240 (EDC) for 2-3 hr at room temperature. After which, samples were transferred to 10 kDa dialysis cassettes (Thermo Scientific) and dialyzed overnight against PBS. The ovalbumin bound VB-201 (OB201) and VB-221 (OB221) were then conjugated with amine-PEG2-biotin (in 0.1M MES buffer) using EDC at a molar ratio of 1 (OB201/0B221):100 (amine-PEG2-biotin):700 (EDC). The reaction was allowed to proceed for 2-3 hr at room temperature after which samples were again transferred to a 10 kDa dialysis cassette and dialyzed overnight against PBS.
# Streptavidin-APC (eBioscience, San Diego, CA) was used to detect binding of labelled VB-201 or VB-221 in flow cytometry experiments.
# Studies were also conducted to assess whether VB-201 can bind MOSPD2 in its native form, when expressed on the cell surface. Thus, HEK293 cells were transfected with a plasmid encoding HA-tagged human MOSPD2 and then stained with labelled VB-201 or VB-221.
# [2] = target: T2, MOSPD2 (Homo sapiens, UniProt Q8NHP6); experiment: Precipitation of human monocyte proteins with labeled compound, differential display by Mass-Spectrometry; format: binding; conditions: proteins from human monocytes
# T2 construct: labelled VB-201 and VB-221 were employed on cell lysates from human CD14 monocytes; endogenous in cells; host or cells: primary human CD14 monocytes from peripheral blood of healthy donors
# T2 sequence (Q8NHP6 1-518): T1 sequence (Q8NHP6 1-518)
# [3] = target: T2, MOSPD2; experiment: Precipitation from human CD14 monocyte lysate, blot against MOSPD2; format: binding; conditions: labelled compound (OB201/OB221)
# Method: as §1
# (§2) Cells were lysed using a 1% NP-40 lysis buffer containing 1:100 protease and phosphatase inhibitors, followed by 20 min incubation on ice and 15 min centrifugation at maximum speed. Samples were incubated overnight at 4° C. with solvent, OB201 or OB221 in a rotator. Streptavidin agarose beads (Sigma, Israel) were added for 2 hours. Protein elution was performed with lysis buffer without DTT for 10 min at room temperature. Sample loading, transfer and immuno-blotting were performed as described above. […]
# [4] = tested on: monocytes; conditions: cited from earlier work
# [5] = target: T3, TLR2 (Homo sapiens, UniProt O60603); experiment: Precipitation from human CD14 monocyte lysate, blot against TLR2; format: binding; conditions: labelled compound (OB201/OB221)
# T3 construct: endogenous in cells; host or cells: primary human CD14 monocytes
# Method: as §1, §2
# [6] = tested on: chemokine-induced signaling in human monocytes; conditions: cited from earlier work
# T3 sequence (O60603 21-784): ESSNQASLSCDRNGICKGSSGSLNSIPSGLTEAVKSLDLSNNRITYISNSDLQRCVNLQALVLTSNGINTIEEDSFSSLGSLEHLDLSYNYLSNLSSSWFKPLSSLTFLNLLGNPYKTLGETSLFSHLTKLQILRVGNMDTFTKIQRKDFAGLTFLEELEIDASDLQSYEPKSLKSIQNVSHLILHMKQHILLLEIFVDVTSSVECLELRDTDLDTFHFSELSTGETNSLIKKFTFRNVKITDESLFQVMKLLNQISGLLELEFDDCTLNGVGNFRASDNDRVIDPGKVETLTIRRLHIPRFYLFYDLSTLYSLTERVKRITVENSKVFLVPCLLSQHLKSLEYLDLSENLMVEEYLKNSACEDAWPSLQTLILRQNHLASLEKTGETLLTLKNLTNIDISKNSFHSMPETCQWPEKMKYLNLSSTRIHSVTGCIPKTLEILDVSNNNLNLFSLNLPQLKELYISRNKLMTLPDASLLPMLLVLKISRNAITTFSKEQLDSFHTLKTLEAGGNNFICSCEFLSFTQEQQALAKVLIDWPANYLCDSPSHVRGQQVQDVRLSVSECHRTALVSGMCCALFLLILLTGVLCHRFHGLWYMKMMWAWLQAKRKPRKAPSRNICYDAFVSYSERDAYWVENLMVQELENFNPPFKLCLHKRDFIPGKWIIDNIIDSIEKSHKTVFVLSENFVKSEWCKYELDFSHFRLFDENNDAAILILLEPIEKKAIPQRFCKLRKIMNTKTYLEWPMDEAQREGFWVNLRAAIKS
Molecule,binding to cells transfected with empty vector ([1]; HEK293 transfected with empty vector),staining of / binding to cells that express MOSPD2 (HA positive) [1],binding of MOSPD2 (Mass-Spectrometry of precipitated proteins) [2],precipitation of MOSPD2 [3],migration of monocytes ([4]; in vitro and in vivo),precipitation of TLR2 [5],chemokine-induced migration in human monocytes [4],chemokine-induced signaling in human monocytes [6]
1-hexadecyl-2-(4′-carboxy)butyl-glycero-3-phosphocholine [VB-201],not,binds; also recorded: profound staining,strong binding,binds; also recorded: markedly more intense than VB-221,inhibits,comparable intensity,–,–
"CCCCCCCCCCC(CCCCCCCC)COCC(COP(=O)([O-])OCC[N+](C)(C)C)OCCCCC(=O)O (centres unmarked) [VB-221, 1-(2′-octyl)dodecyl-2-(4′-carboxy)butyl-glycero-3-phosphocholine]",–,only weak staining,not,–,–,comparable intensity,did not inhibit,did not inhibit
